Laboratory results as given in PMC5572697, “A first-in-human study of the novel HIV-fusion inhibitor C34-PEG4-Chol” (Scientific Reports, 2017).
Read-outs that look alike come from different tables or passages of the source.

Test: Human plasma pharmacokinetics after a single subcutaneous dose
Assay type: in vivo
Parameters: Area under plasma-concentration-time-curve: unit not given here
Conditions: for half-life / Cmax / Tmax / Vd: sc; for Cmax: LC-MS/MS, non-compartmental, read-out: Maximum observed concentration; for Tmax: read-out: Time to maximum observed concentration; for Vd: read-out: Volume of distribution; for Time-to-MEC (time plasma concentrations remained above the minimum effective concentration): assay cut-off 62.5 ng/mL used as surrogate
Description: Intensive pharmacokinetic sampling was performed over the first 24 hours subsequent to dosing with samples collected pre-dose, 0.5 h, 1 h, 2 h, 4 h, 6 h, 8 h, 12 h, 24 h. Thereafter pharmacokinetic sampling was undertaken on days 2, 3, 4, 7, 10, 14, 21 and 28. Plasma samples (100 µL) were extracted in 300 µL of acetonitrile containing 1% formic acid; vortexed and centrifuged at 4000 rpm for 10 minutes. The supernatant was transferred into autosampler vials, and 25 μL injected onto the LC-MS/MS. Quantitative analysis of C34-PEG4-Chol was performed by LC-MS/MS using a Thermo Quantum Access triple quadrupole mass spectrometer, interfaced with a heated electrospray ionisation (H-ESI) source (Thermo Fisher Scientific, Hemel Hempstead, UK). The HPLC system included a variable loop Accela autosampler and an Accela pump (ThermoScientific, Hemel Hempstead, UK). Chromatographic separation was achieved using a reverse-phase XBridge Peptide BEH C18 column (3.5 µm; 50 mm × 2.1 mm) (Waters Corporation, Milford, US) interfaced with a 2 µm C18 Quest column saver (Thermo Scientific, Hemel Hempstead, UK). The gradient mobile phase, consisting of a solvent A (0.1% formic acid in Water) and solvent B (0.1% formic acid in acetonitrile), was delivered at a flow rate of […]. Detection of C34-PEG4-Chol was performed in the pseudo Selected Reaction Monitoring mode, monitoring a triple charged molecular ion [M + 3 H]3 + at m/z 1756.8. The internal standard (quinoxaline), was monitored at m/z 313.1 → 246.1. Peak area ratios of compound to internal standard were utilized to construct a calibration curve with a weighting of 1/x2. Data acquisition and processing was performed using LCQuan software (Version 2.7, Thermo Scientific, Hemel Hempstead, UK). The assay calibration range was between 62.5–10,000 ng/mL; inter and intra-assay accuracy and precision at the assay limit of quantification (LLQ) fell within the designated ±20% of the nominal value, and were within ±15% for all QC levels.
Pharmacokinetic parameters were derived via non-compartmental modeling. The area-under-the-concentration-time-curve (AUC) was calculated following a single dose, assuming linear decrease over time, by linear trapezoidal method. The maximum concentration (Cmax) observed at each dose and the time-to-Cmax (Tmax) were calculated. The time to reach minimum effective concentration was assessed in order to determine the frequency of future dosing regimens. […] Given our assay cut-off was 62.5 ng/mL, our assay cut off was used as a surrogate for the IC90.

[1] = human, in vivo, 10 mg, participant 1, single SC 10 mg
[2] = human, in vivo, 10 mg, participant 3, single SC 10 mg
[3] = human, in vivo, 20 mg, participant 5, single SC 20 mg

For `CC[C@H](C)[C@H](NC(=O)[C@H](CC(C)C)NC(=O)[C@H](CO)NC(=O)[C@H](Cc1c[nH]cn1)NC(=O)[C@@H](NC(=O)[C@H](CC(C)C)NC(=O)[C@H](CO)NC(=O)[C@@H](NC(=O)[C@H](Cc1ccc(O)cc1)NC(=O)[C@H](CC(N)=O)NC(=O)[C@H](CC(N)=O)NC(=O)[C@@H](NC(=O)[C@H](CCC(=O)O)NC(=O)[C@H](CCCNC(=N)N)NC(=O)[C@H](CC(=O)O)NC(=O)[C@H](Cc1c[nH]c2ccccc12)NC(=O)[C@H](CCC(=O)O)NC(=O)[C@H](CCSC)NC(=O)[C@H](Cc1c[nH]c2ccccc12)NC(C)=O)[C@@H](C)CC)[C@@H](C)O)[C@@H](C)CC)C(=O)N[C@@H](CCC(=O)O)C(=O)N[C@@H](CCC(=O)O)C(=O)N[C@@H](CO)C(=O)N[C@@H](CCC(N)=O)C(=O)N[C@@H](CC(N)=O)C(=O)N[C@@H](CCC(N)=O)C(=O)N[C@@H](CCC(N)=O)C(=O)N[C@@H](CCC(=O)O)C(=O)N[C@@H](CCCCN)C(=O)N[C@@H](CC(N)=O)C(=O)N[C@@H](CCC(=O)O)C(=O)N[C@@H](CCC(N)=O)C(=O)N[C@@H](CCC(=O)O)C(=O)N[C@@H](CC(C)C)C(=O)N[C@@H](CC(C)C)C(=O)NCC(=O)N[C@@H](CO)C(=O)NCC(=O)N[C@@H](CSCC(=O)NCCOCCOCCOCCOCCC(=O)O[C@H]1CC[C@@]2(C)C(=CC[C@H]3[C@@H]4CC[C@H]([C@H](C)CCCC(C)C)[C@@]4(C)CC[C@@H]32)C1)C(N)=O` [C34-PEG4-Chol], the half-life [1] was 48 h, the Cmax (human, in vivo, 10 mg, participant 1, single SC 10 mg, plasma) was 418 ng/mL and the Tmax [1] was 2 h. It also gave a Vd [1] of 24 L, a half-life [2] of 54 h and a Cmax (human, in vivo, 10 mg, participant 3, single SC 10 mg, plasma) of 278 ng/mL. For the same molecule, the Tmax [2] was 6 h, the Vd [2] was 39.5 L and the half-life [3] was 46 h. The Cmax (human, in vivo, 20 mg, participant 5, single SC 20 mg, plasma) was 1030 ng/mL, the Tmax [3] was 2 h and the Vd [3] was 19.5 L. For the same molecule, the AUC (human, in vivo, participant 3, single SC 10 mg, linear trapezoidal, read-out: Area under plasma-concentration-time-curve) was 200 ng·h/mL, the level at 72 h (human, plasma, two subjects, single SC 10 mg, above the LLOQ, read-out: Plasma concentration at 72 hours) was > 62 ng/mL and the Area under plasma-concentration-time-curve (participant 5, single SC 20 mg, linear trapezoidal) was 506. For the same molecule, the “Time-to-MEC (time plasma concentrations remained above the minimum effective concentration)” value (single SC 10 mg) was 72 h, the “Time-to-MEC (time plasma concentrations remained above the minimum effective concentration)” value (single SC 20 mg) was 96 h and the “Half-life, range over the three participants” value (single SC 10, 10 and 20 mg) was 46 to 54 h.
